Assay: Phase I clinical trial: safety, related treatment-emergent adverse events, patients n (%)
Type: in vivo
[1] = Total QW Dosing, N = 15, listed as Cpd A
[2] = all 3 intermittent dosing regimens, n=35

Experimental: Safety, maximum tolerated dose (MTD), pharmacokinetics (PK) and preliminary antitumor activity were evaluated.
Pharmacodynamic (PD) endpoints were evaluated in surrogate (peripheral blood cells [PBCs], skin) and tumor tissues for the phosphorylation of TORC1-dependent markers (4EBP1/S6), and TORC2-dependent markers (AKT/PRAS40).

CC(C)n1nc(-c2ccc3oc(N)nc3c2)c2c(N)ncnc21 [compound A]
Gastritis (Total QDx3d QW, N = 14): 0 (0%)
Gravitational oedema (Total QDx3d QW, N = 14): 0 (0%)
Hypocalcaemia (Total QDx3d QW, N = 14): 0 (0%)
Insomnia (Total QDx3d QW, N = 14): 0 (0%)
Malaise (Total QDx3d QW, N = 14): 0 (0%)
Nausea (Total QDx3d QW, N = 14): 0 (0%)
Oral discomfort (Total QDx3d QW, N = 14): 0 (0%)
Orthostatic hypotension (Total QDx3d QW, N = 14): 0 (0%)
Panniculitis (Total QDx3d QW, N = 14): 0 (0%)
Polyuria (Total QDx3d QW, N = 14): 0 (0%)
Rash (Total QDx3d QW, N = 14): 0 (0%)
Skin discolouration (Total QDx3d QW, N = 14): 0 (0%)
Skin exfoliation (Total QDx3d QW, N = 14): 0 (0%)
Urine tract infection (Total QDx3d QW, N = 14): 0 (0%)
Vomiting (Total QDx3d QW, N = 14): 0 (0%)
Weakness (Total QDx3d QW, N = 14): 0 (0%)
Weight decreased (Total QDx3d QW, N = 14): 0 (0%)
Catheter site inflammation (Total QDx5d QW, N = 6): 0 (0%)
Catheter site pain (Total QDx5d QW, N = 6): 0 (0%)
Coagulopathy (Total QDx5d QW, N = 6): 0 (0%)
Confusional state (Total QDx5d QW, N = 6): 0 (0%)
Cough (Total QDx5d QW, N = 6): 0 (0%)
Diarrhea (Total QDx5d QW, N = 6): 0 (0%)
Dizziness (Total QDx5d QW, N = 6): 0 (0%)
Dyspnoea exertional (Total QDx5d QW, N = 6): 0 (0%)
Eye infection (Total QDx5d QW, N = 6): 0 (0%)
Fatigue (Total QDx5d QW, N = 6): 0 (0%)
Gastritis (Total QDx5d QW, N = 6): 0 (0%)
Gravitational oedema (Total QDx5d QW, N = 6): 0 (0%)
Headache (Total QDx5d QW, N = 6): 0 (0%)
Hyperbilirubinaemia (Total QDx5d QW, N = 6): 0 (0%)
Hypertransaminasaemia (Total QDx5d QW, N = 6): 0 (0%)
Hypertriglyceridaemia (Total QDx5d QW, N = 6): 0 (0%)
Hypocalcaemia (Total QDx5d QW, N = 6): 0 (0%)
Hypomagnesaemia (Total QDx5d QW, N = 6): 0 (0%)
Hypotension (Total QDx5d QW, N = 6): 0 (0%)
Insomnia (Total QDx5d QW, N = 6): 0 (0%)
Low fever (Total QDx5d QW, N = 6): 0 (0%)
Malaise (Total QDx5d QW, N = 6): 0 (0%)
Nausea (second line) (Total QDx5d QW, N = 6): 1 (17%)
Oral discomfort (Total QDx5d QW, N = 6): 0 (0%)
Orthostatic hypotension (Total QDx5d QW, N = 6): 0 (0%)
Palmar-plantar erythrodysaesthesia syndrome (Total QDx5d QW, N = 6): 0 (0%)
Panniculitis (Total QDx5d QW, N = 6): 0 (0%)
Platelet count decreased (Total QDx5d QW, N = 6): 0 (0%)
Polyuria (Total QDx5d QW, N = 6): 0 (0%)
Pyrexia (Total QDx5d QW, N = 6): 0 (0%)
Rash (Total QDx5d QW, N = 6): 0 (0%)
Rash macular (Total QDx5d QW, N = 6): 0 (0%)
Skin discolouration (Total QDx5d QW, N = 6): 0 (0%)
Skin exfoliation (Total QDx5d QW, N = 6): 0 (0%)
Urinary tract infection (Total QDx5d QW, N = 6): 0 (0%)
Weakness (Total QDx5d QW, N = 6): 0 (0%)
Weight decreased (Total QDx5d QW, N = 6): 0 (0%)
Aspartate aminotransferase increased (Total QW Dosing, N = 15): 2 (13%)
Asthenia (Total QW Dosing, N = 15): 2 (13%)
Catheter site inflammation (Total QW Dosing, N = 15): 0 (0%)
Catheter site pain (Total QW Dosing, N = 15): 0 (0%)
Coagulopathy (Total QW Dosing, N = 15): 0 (0%)
Confusional state (Total QW Dosing, N = 15): 0 (0%)
Cough (Total QW Dosing, N = 15): 0 (0%)
Diarrhoea (Total QW Dosing, N = 15): 3 (20%)
Dizziness (Total QW Dosing, N = 15): 0 (0%)
Dyspnoea exertional (Total QW Dosing, N = 15): 0 (0%)
Eye infection (Total QW Dosing, N = 15): 0 (0%)
Fatigue (Total QW Dosing, N = 15): 0 (0%)
Gastritis (Total QW Dosing, N = 15): 0 (0%)
Gravitational oedema (Total QW Dosing, N = 15): 0 (0%)
HYPERGLYCEMIA (Total QW Dosing, N = 15): 2 (13%)
Headache (Total QW Dosing, N = 15): 0 (0%)
Hyperbilirubinaemia (Total QW Dosing, N = 15): 0 (0%)
Hyperglycaemia (Total QW Dosing, N = 15): 5 (33%)
Hypertransaminasaemia (Total QW Dosing, N = 15): 0 (0%)
Hypertriglyceridaemia (Total QW Dosing, N = 15): 0 (0%)
Hypocalcaemia (Total QW Dosing, N = 15): 0 (0%)
Hypomagnesaemia (Total QW Dosing, N = 15): 0 (0%)
Hypotension (Total QW Dosing, N = 15): 0 (0%)
Insomnia (Total QW Dosing, N = 15): 0 (0%)
Low fever (Total QW Dosing, N = 15): 0 (0%)
Mucosal inflammation (Total QW Dosing, N = 15): 3 (20%)
Nausea (Total QW Dosing, N = 15): 0 (0%)
Orthostatic hypotension (Total QW Dosing, N = 15): 0 (0%)
Palmar-plantar erythrodysaesthesia syndrome (Total QW Dosing, N = 15): 0 (0%)
Panniculitis (Total QW Dosing, N = 15): 0 (0%)
Patients Reporting at Least One Related TEAE (Total QW Dosing, N = 15): 13 (87%)
Platelet count decreased (Total QW Dosing, N = 15): 0 (0%)
Polyuria (Total QW Dosing, N = 15): 0 (0%)
Pyrexia (Total QW Dosing, N = 15): 0 (0%)
Rash macular (Total QW Dosing, N = 15): 0 (0%)
Skin discolouration (Total QW Dosing, N = 15): 0 (0%)
Skin exfoliation (Total QW Dosing, N = 15): 0 (0%)
Urinary tract infection (Total QW Dosing, N = 15): 0 (0%)
Urine tract infection (Total QW Dosing, N = 15): 0 (0%)
Vomiting (Total QW Dosing, N = 15): 0 (0%)
Weight decreased (Total QW Dosing, N = 15): 0 (0%)
Nausea [1]: 10 (67%)
Vomiting [1]: 5 (33%)
Catheter site inflammation (Total, N = 60): 1 (2%)
Catheter site pain (Total, N = 60): 1 (2%)
Coagulopathy (Total, N = 60): 1 (2%)
Confusional state (Total, N = 60): 1 (2%)
Cough (Total, N = 60): 1 (2%)
Diarrhea (Total, N = 60): 1 (2%)
Dizziness (Total, N = 60): 1 (2%)
Dyspnoea exertional (Total, N = 60): 1 (2%)
Eye infection (Total, N = 60): 1 (2%)
Fatigue (Total, N = 60): 1 (2%)
Gastritis (Total, N = 60): 1 (2%)
Gravitational oedema (Total, N = 60): 1 (2%)
Headache (Total, N = 60): 1 (2%)
Hyperbilirubinaemia (Total, N = 60): 1 (2%)
Hypertransaminasaemia (Total, N = 60): 1 (2%)
Hypertriglyceridaemia (Total, N = 60): 1 (2%)
Hypocalcaemia (Total, N = 60): 1 (2%)
Hypomagnesaemia (Total, N = 60): 1 (2%)
Hypotension (Total, N = 60): 1 (2%)
Insomnia (Total, N = 60): 1 (2%)
Low fever (Total, N = 60): 1 (2%)
Malaise (Total, N = 60): 1 (2%)
Nausea (Total, N = 60): 1 (2%)
Oral discomfort (Total, N = 60): 1 (2%)
Orthostatic hypotension (Total, N = 60): 1 (2%)
Palmar-plantar erythrodysaesthesia syndrome (Total, N = 60): 1 (2%)
Panniculitis (Total, N = 60): 1 (2%)
Platelet count decreased (Total, N = 60): 1 (2%)
Polyuria (Total, N = 60): 1 (2%)
Pyrexia (Total, N = 60): 1 (2%)
Rash (Total, N = 60): 1 (2%)
Rash macular (Total, N = 60): 1 (2%)
Skin discolouration (Total, N = 60): 1 (2%)
Skin exfoliation (Total, N = 60): 1 (2%)
Urinary tract infection (Total, N = 60): 1 (2%)
Urine tract infection (Total, N = 60): 1 (2%)
Vomiting (Total, N = 60): 1 (2%)
Weakness (Total, N = 60): 1 (2%)
Weight decreased (Total, N = 60): 1 (2%)
AE possibly related: asthenia [2]: 23%
AE possibly related: diarrhea [2]: 20%
AE possibly related: hyperglycemia [2]: 37%
AE possibly related: mucosal inflammation [2]: 29%
AE possibly related: nausea [2]: 51%
AE possibly related: rash [2]: 23%
AE possibly related: vomiting [2]: 26%
reversibility of adverse events (all AEs reported): reversible
grade of the majority of AEs possibly related (any regimen): Grade 1 or 2

From US20130209543A1, “ENHANCED TREATMENT REGIMENS USING MTOR INHIBITORS” (Intellikine LLC, priority 2011, published 2013)
